{"source": "patent US20260085315A1", "about": "“POLYNUCLEOTIDE COMPOSITIONS AND METHODS FOR TREATMENT OF CANCER” (APTAH BIO, INC., priority 2023, published 2026)", "key": {"[1]": {"system": "U87MG (Human Glioblastoma)", "test": "MTT viability assay 48/96/144 h (Example 5)", "assay_type": "cell-based", "settings": "0.003-30 μM tested", "procedure": "In vitro effects of APT20TTMG on viability and proliferation of human cancer cell line U87MG (Human Glioblastoma) were also evaluated by MTT and BrdU assays, respectively. Cells were treated with APT20TTMG and Reference Items in technical triplicates (Experiment was done in 3 different sets) at various concentrations for 48 h, 96 h, and 144 h. APT20TTMG and Reference Items were read after every 48 h.\nAs shown in FIGS. 32-33, A MTT assay (FIG. 32) was also performed with another five different concentrations of APT20TTMG (0.003, 0.03, 0.3, 3, and 30 μM) and at 48, 96, and 144 hours of incubation. […] Finally, to confirm whether APT20TTMG is a cytotoxic or cytostatic molecule considering its ability to reduce cellular viability in certain concentrations, a cell proliferation assay (FIG. 33) with the U87-MG cell line was also performed in the same conditions as the MTT assay. […] Cells were plated and treated with 5 different concentrations (0.003, 0.03, 0.3, 3, and 30 μM). BrdU assay was performed after 48, 96, or 144 hours of incubation. Data are plotted as a percentage (%) of cell viability compared to the negative control group (vehicle). Results are expressed as Mean±SEM of three independent experiments performed in three technical replicates. […]"}, "MCF-7 cell line": {"system": "MCF-7 cell line", "test": "Mitochondrial membrane potential (MitoTracker Red)", "assay_type": "cell-based, Human", "settings": "0.25, 0.5, 1 μM; 24 hours; vs non-treated cells", "procedure": "The evaluation of ASMO1 APT20TTMG effect on the mitochondrial membrane potential of MCF-7 cell line was performed using MitoTracker Red dye. MitoTracker Red is a cationic fluorophore that accumulates in the mitochondria matrix, providing an indication of the viability and integrity of that organelle.\nFor this, cells were cultured overnight in 24-well plates at a density of 1×10^5 cells/well, aiming cell adhesion. After that, cells were treated with three concentrations of APT20TTMG (0.25, 0.5, and 1 μM) for 24 hours. After treatment with the ASMO1, cells were collected using a 0.05% trypsin solution and washed twice with 2.0 mL of PBS buffer. Finally, samples were incubated with 500 μL of MitoTracker Red fluorescent dye solution at a concentration of 50 nM for 15 minutes in an incubator. Then the cells were again washed twice with 2 mL of PBS and, subsequently, analyzed in a flow cytometer (BD FACSCanto II, BD Biosciences) through the acquisition of 10.000 gated events/sample."}, "U87-MG cell line": {"system": "U87-MG cell line", "test": "Mitochondrial membrane potential", "assay_type": "cell-based, Human", "settings": "0.25 and 0.5 μM"}}, "note": "d = 2'-deoxy (DNA); m = 2'-O-methyl", "data": [{"substance": "APT20TTMG: engineered polynucleotide ASMO1, 24 nt, SEQ ID NO: 3 gtccactaacctttcaggccagcg; targeting moieties 5′-GTCCA-3′ and 5′-CG-3′, U1 snRNP recruiting moiety (GTCCACTAACCTTTCAGGCCAGCG; sugars from the 5' end m5 d14 m5, all phosphorothioate, methylation of C and T or U not given here)", "values": [{"measurement": "concentrations observed to reduce cell viability (MTT)", "setting": "[1]; 96 and 144 hours", "result": "≥ 0.3", "unit": "µM"}, {"measurement": "concentration observed to reduce cell viability (MTT)", "setting": "[1]; 48 hours", "result": 30, "unit": "µM"}, {"measurement": "mitochondrial membrane potential", "setting": "MCF-7 cell line", "result": "no change in mitochondrial membrane potential"}, {"measurement": "mitochondrial membrane potential labeling", "setting": "U87-MG cell line", "result": "reducing the labeling"}]}]}
